This note sets out measurements from patent publication US10874727B2, “Inducible regulatory t-cell generation for hematopoietic transplants” (The Trustees of the University of Pennsylvania, priority 2008, dated 2020).

One data set relates to CD4+25− T cells. As to the kind of experiment: iTreg generation from CD4+25− T cells cultured with allogeneic TLR9 activated pDCs. The data set is classed as cell-based, human. Conditions: IDO inhibition by 1MT in pDC cultures. The source says: (§1) CD4^+25^− T cells, when cultured with allogeneic TLR9 activated allogeneic plasmacytoid dendritic cells (pDCs), but not B-cells, lead to the generation of iTregs, CD4^+25^+FoxP3^+ suppressor cells (FIG. 2). It was also observed that iTregs (closed), but not T cells primed to TLR activated B cells (open squares), were potently suppressive of a naïve MLR culture (x-axis are x 104; MLR used 105 naïve T cells; FIG. 3). […] Since IDO catabolizes tryptophan into kynurenines (KYN), it is believed that iTregs can be generated in B cell cultures using KYN.

Another data set relates to naïve MLR culture. As to the kind of experiment: MLR suppression by iTregs generated in B cell cultures using KYN. It counts as cell-based, human. The note with it: KYN added to allogeneic B cell cultures (50 μM elsewhere in the source); not blocked by 1MT.
From the text: as §1
It has been shown that CD4^+25^− T-cells exposed to allogeneic TLR9 activated plasmacytoid dendritic cells (pDCs), but not B-cells, leads to the generation of iTregs (Moseman et al., 2004, J Immunol 173:4433-42), CD4^+25^+FoxP3^+ suppressor cells, a process dependent upon the enzyme indoleamine 2,3-dioxygenase (IDO) that catabolizes tryptophan. […] Because obtaining high numbers of non-malignant B-cells or pDCs from leukemia/lymphoma patients would be difficult, low trypt/KYN conditions in an artificial antigen-presenting cell expansion system was examined. In considering strategies for iTreg generation, experiments were designed to focus on molecular features preferentially associated with nTregs vs naïve or T effector cells. […]

Data set [1] concerns CD4+25−45RA+ T cells. Put plainly: iTreg generation: FoxP3 flow phenotype of cultured CD4+25−45RA+ T cells at day 10. It counts as cell-based, human. The note with it: for iTreg generation / induction of CD4+127loFoxP3hi cells by day 10: single agents: rapa, TGFb 10 ng/ml, SAHA 300 nM, TSA 100 nM. On the procedure: (§2) For initial studies, to ensure inducible Treg (iTreg) conversion was being examined and not natural Treg (nTreg) expansion, CD4^+25^−45 RA^+ T cells are isolated from ficolled buffy coat cells by negative selection (CD8, CD11b, CD16, CD19, CD36, CD56 CD25) followed by CD45RA positive selection using beads. Cells are cultured in X-Vivo-15 or trypt-free media, as indicated, along with human ABneg serum (10%) and L-glutamine. rIL-2 (300 U/ml: Chiron) is added on day 2 and with re-feeds.
In order to assay for the presence of non-Tregs and nTregs, multi-color phenotyping can be employed pre- and post-isolation and on days 7, 10, 14, 21 for both non-Tregs and nTregs (CD4/25/127lo/FoxP3) for co-expression of adhesion molecules (e.g., CD62L; LFA-1), chemokine receptors (e.g., CCR4-9; CXCR3), and cytokines (IL2, IL17, TNFa, IL10). Phosphorylated-Stat5 and p-Akt can be analyzed at 15′ post-stimulation with PMA/ionomycin.
(§3) To simulate IDO effects, cells were cultured in low tryp+KYN using KYN at 10 μM+trypt at 1 μM until day 7 then 5 μM trypt beyond day 7 to support expansion after iTreg “imprinting” has occurred. Decitibine was added at 1-5 μM (final) to day 3 cultures. Cultures were expanded with anti-CD3/28 mAb-loaded, irradiated KT32 (FcR+) cells. Anti-CD3/28 beads (3 beads:1 cell) or 100 Gy irradiated, anti-CD3 (OKT3) loaded KT64/86 cells (1 KT cell:2 CD4^+25^− T cells) are added on day 0. Cell density is maintained at 0.2-2×10^6/ml by 50% vol/vol re-feeds. By 10 days, diluent cultured cells expanded about 30-fold, decibine about 11 fold and low tryp/KYN about 5-fold; CD4+CD127loFoxP3hi cells were 1%, 16%, and 13%, respectively (FIG. 4; upper, FoxP3hi; lower box, FoxP3int,lo). […] In studies using umbilical cord blood (UCB) nTregs, day 11 cultures re-stimulated with KT cells expanded an additional 20-fold compared to no re-stimulation.
The next set of experiments were designed to compare the effects of a HDACi in a bead- or cell-based artificial antigen-presenting cell system (KT32) for generating iTregs (FIGS. 5B and 5C). Purified human naïve T cells (CD4^+, CD25^−, CD45RA^+) were stimulated with KT32 (K562 engineered to express human CD32) loaded with anti-CD3 and CD28 antibodies. The cells were cultured for 3 days and SAHA added a single time at the indicated concentrations, and analyzed 7 days later (day 10) for Foxp3 expression (FIG. 5B). Purified human naïve T cells (CD4^+, CD25^−, CD45RA^+) were stimulated with KT32 (K562 engineered to express human CD32) loaded with anti-CD3 and CD28 antibodies. The cells were cultured for 3 days and Trichostatin A added a single time at the indicated concentrations, and analyzed 7 days later (day 10) for Foxp3 expression.
The next set of experiments were designed to compare the effects of the combination of an HDACi with a demethylating agent in a bead- and cell-based antigen-presenting cell system (FIG. 5F). Purified human naïve T cells (CD4^+, CD25^−, CD45RA^+) were stimulated with clinical grade anti-CD3/28 beads or with KT32 (K562 engineered to express human CD32) loaded with anti-CD3 and CD28 antibodies. On day 3 of culture, the specified HDACi were added. On day 7, a single dose of Decitibine (1 μM) was added and cultures analyzed 3 days later (day 10) for Foxp3 expression.

In data set [2] the test system is CD4+25−45RA+ T cells. Put plainly: Expansion of CD4+25−45RA+ T cells in bead- or cell-based artificial APC cultures. Also noted: species or system human. On the procedure: as §2, §3
The next set of experiments were designed to compare the effects of a HDACi in a bead- or cell-based artificial antigen-presenting cell system (KT32) for generating iTregs (FIGS. 5B and 5C). […] The cells were cultured for 3 days and SAHA added a single time at the indicated concentrations, and analyzed 7 days later (day 10) for Foxp3 expression (FIG. 5B). […] The cells were cultured for 3 days and Trichostatin A added a single time at the indicated concentrations, and analyzed 7 days later (day 10) for Foxp3 expression.
The next set of experiments were designed to compare the effects of a demethylating agent in a bead- or cell-based artificial antigen-presenting cell system (KT32) for generating iTregs (FIGS. 5D and 5E). […] The cells were cultured for 3 days and Decitibine added a single time at the indicated concentrations, and analyzed 7 days later (day 10) for Foxp3 expression (FIG. 5D). […] The cells were cultured for 3 days and 5-Azacytidine added a single time at the indicated concentrations, and analyzed 7 days later (day 10) for Foxp3 expression (FIG. 5E).
The next set of experiments were designed to compare the effects of the combination of an HDACi with a demethylating agent in a bead- and cell-based antigen-presenting cell system (FIG. 5F). […] On day 7, a single dose of Decitibine (1 μM) was added and cultures analyzed 3 days later (day 10) for Foxp3 expression.

The subject of another data set is CD8+ T cell. Put plainly: iTreg suppression of CD8+ T cell proliferation by CFSE dye-dilution. The data set is classed as cell-based, human. Conditions: 1:16 ratio. On the procedure:
as §3
In vitro potency of expanded iTregs vs nTregs may be assayed for suppression in MLR and anti-CD3 mAb driven, CD8+ CFSE T cell proliferation assays.

A further data set relates to CD4+25−45RA+ cells. Put plainly: Foxp3 expression at day 14 after Decitibine ± TGFβ induction and re-stimulation with anti-CD3 loaded KT64/86. It counts as cell-based, human. The note with it: for Foxp3 expression: Decitibine 5 μM day 7 ± TGFβ 10 ng/ml day 0, re-stimulated day 7. On the procedure:
The next set of experiments was designed to determine whether re-stimulation of iTreg increases the percentage of Foxp3++ cells. nTreg (CD4^+25^++) and CD4^+25^−45 RA^+ cells were purified from peripheral blood (PB) using magnetic beads and the cells were stimulated with anti-CD3 loaded KT64/86 cells (K562 cells modified to express an Fc receptor CD64 and CD86). nTreg were cultured in the presence of IL-2 (300 U/ml) and Rapamycin (109 nM) while CD4^+25^− cells were cultured with IL-2 alone, or were induced to become Treg by the addition of Decitibine (5 μM at day 7) and Rapamycin (109 nM at day 7). Portions of the CD4^+25^−45 RA^+ and Decitibine iTreg cultures were also re-stimulated on day 7 with anti-CD3 loaded KT64/86 cells. After a total of 14 days, cells were harvested and the expression of CD4, CD25, and Foxp3 was measured using flow cytometry. FIG. 6 summarizes the results in the context of percentage of CD4+ gated cells expressing low (Foxp3+) or high (Foxp3++) levels of Foxp3.
The next set of experiments was designed to determine whether TGFβ could synergize the effects of Decitibine to induce Foxp3 expression in the cells. Briefly, nTreg (CD4^+25^++) and CD4^+25^−45 RA^+ cells were purified from peripheral blood using magnetic beads and stimulated with anti-CD3 loaded KT64/86 cells. nTreg were cultured in the presence of IL-2 (300 U/ml) and Rapamycin (109 nM) while CD4^+25^− cells were cultured with IL-2 alone, or were induced to become Treg by the addition of Decitibine (5 μM at day 7) in the presence or absence of TGFβ (10 ng/ml, day 0). All samples were re-stimulated on day 7 with anti-CD3 loaded KT64/86 cells. After a total of 14 days, cells were harvested and expression of CD4, CD25, and Foxp3 was measured using flow cytometry.

The next data set has as its system CD4+25+ Tregs. Put plainly: Expansion of CD4+25+ Tregs with anti-CD3/28 microbeads or KT64/86 cells plus IL-2, with or without rapa. It counts as cell-based, human. An excerpt: (§4) Adding rapa, which is an mTOR inhibitor, (labeled as +) reduced mean expansion rates by 30-fold with beads resulting in ≤10-fold mean expansion rates by day 14.
A further data set relates to PBMNCs. As to the kind of experiment: Suppression by expanded Tregs (ratios of Tregs to PBMNCs). The data set is classed as cell-based, human. The note with it: TGFβ 10 ng/ml added to the cells.
From the text: as §4

Entries after “also recorded” stand apart in the source; their conditions may differ.

As for `Cn1cc(C[C@H](N)C(=O)O)c2ccccc21` [1MT, 1-methyl-tryptophan], the iTreg conversion entry with CD4+25− T cells is given as “prevented iTreg conversion”.

For the molecule `Nc1ccccc1C(=O)CC(N)C(=O)O` (stereo not shown) [KYN, kynurenine], the “MLR suppression / suppressive iTregs” value with naïve MLR culture is recorded as “potent MLR suppression; also recorded: potently suppressive iTregs”.

`O=C(CCCCCCC(=O)Nc1ccccc1)NO` [SAHA, suberoylanilide hydroxamic acid]: the “iTreg generation / induction of CD4+127loFoxP3hi cells by day 10” value in the data set on CD4+25−45RA+ T cells [1] was “did not result in iTregs; also recorded: No iTreg generation”. Moreover, the T cell expansion entry with CD4+25−45RA+ T cells [2] (SAHA 300 nM on day 3) is “did not inhibit T cell expansion”. In addition, in the data set on CD4+25−45RA+ T cells [2] (SAHA 100 μM on day 0), the “toxicity in T cell culture” value was “toxic”.

On to `CC(/C=C/C(=O)NO)=C\[C@@H](C)C(=O)c1ccc(N(C)C)cc1` [TSA, trichostatin A], for which the “CD4+127loFoxP3hi” value with CD4+25−45RA+ T cells [1] (bead expanded cultures, day 10, diluent 1.7) stood at 1.6%. For the same molecule, the FoxP3int/lo with CD4+25−45RA+ T cells [1] (bead expanded cultures, day 10, diluent 21.8%) is on record as 15.4%. Also, the “iTreg generation / induction of CD4+127loFoxP3hi cells by day 10” value in the data set with CD4+25−45RA+ T cells [1] is listed as “No iTreg generation”. The “Day 10 expansions” value in the data set with CD4+25−45RA+ T cells [2] (cell-based cultures, HDACi day 3, decitibine day 7, diluent 20-fold) is recorded as 15 fold.

Take `Nc1ncn([C@H]2C[C@H](O)[C@@H](CO)O2)c(=O)n1` [decitibine, 5-aza-2′-deoxycitidine]: in the data set on CD4+25−45RA+ T cells [1] (by 10 days, KT32 cultures, decitibine 1-5 μM day 3 or low tryp+KYN), the “CD4+CD127loFoxP3hi cells” value was 16%. Also, the “expansion by 10 days” value in the data set on CD4+25−45RA+ T cells [2] (anti-CD3/28 mAb-loaded KT32 cells, decitibine 1-5 μM day 3, KYN 10 μM + trypt 1 μM until day 7 then 5 μM) is “about 11 fold”. The “iTreg suppression of CD8+ T cell proliferation” value in the data set on CD8+ T cell stood at 41%. In the data set on CD4+25−45RA+ cells (Decitibine 5 μM and Rapamycin 109 nM at day 7, re-stimulation on day 7), the “percentage of Foxp3++ cells” value is recorded as “significantly increased”. For the same molecule, the Foxp3 expression result in the data set on CD4+25−45RA+ cells is given as “some Foxp3 expression”.

For the molecule `CO[C@H]1C[C@@H]2CC[C@@H](C)[C@@](O)(O2)C(=O)C(=O)N2CCCC[C@H]2C(=O)O[C@H]([C@H](C)C[C@@H]2CC[C@@H](O)[C@H](OC)C2)CC(=O)[C@H](C)/C=C(\C)[C@@H](O)[C@@H](OC)C(=O)[C@H](C)C[C@H](C)/C=C/C=C/C=C/1C` [rapa, rapamycin], in the data set on CD4+25+ Tregs (Rapa added to KT64/86 driven cultures), the “reduction of mean expansion” value is listed as 10 fold. For the same molecule, in the data set with CD4+25+ Tregs (rapa added, anti-CD3/28 beads), the “reduction of mean expansion rates” value worked out at 30 fold. Also, the “mean expansion rates by day 14” value with CD4+25+ Tregs (rapa added, anti-CD3/28 beads, day 14) is reported as ≤ 10 fold.

On to transforming growth factor-beta [TGFβ], for which, in the data set on PBMNCs, the suppression result is on record as “did not increase suppression”. Besides, the Foxp3 expression entry in the data set with CD4+25−45RA+ cells is “synergizes with Decitibine to induce Foxp3 expression”.
